In ChEMBL document CHEMBL1201862, “PubChem BioAssay data set” (2004):
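A five-concentration, 48-hour dose response in 96-well plates underlies each endpoint, interpolated linearly between surrounding concentrations. GI50: concentration for 50% inhibition of growth.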 Active and inactive are the calls of the source. Cut-off read from the data, not from the text of the source: active = GI50 up to about 1.1 µM and inactive = higher.

How the values were obtained:
Experiment in all cases: NCI anticancer screen, dose series, 48 h
EKVX = tested on: EKVX
K562 = tested on: K562
OVCAR-4 = tested on: OVCAR-4
M14 = tested on: M14
SF-295 = tested on: SF-295
ACHN = tested on: ACHN
HL-60 = tested on: HL-60
A549 = tested on: A549
OVCAR-5 = tested on: OVCAR-5
M19-MEL = tested on: M19-MEL
A498 = tested on: A498
HOP-62 = tested on: HOP-62
SNB-19 = tested on: SNB-19
MOLT-4 = tested on: MOLT-4
HOP-92 = tested on: HOP-92
CAKI-1 = tested on: CAKI-1
KM12 = tested on: KM12

Row | Structure (SMILES) | GI50 (EKVX) | GI50 (K562) | GI50 (OVCAR-4) | GI50 (M14) | GI50 (SF-295) | GI50 (ACHN) | GI50 (HL-60) | GI50 (A549) | GI50 (OVCAR-5) | GI50 (M19-MEL) | GI50 (A498) | GI50 (HOP-62) | GI50 (SNB-19) | GI50 (MOLT-4) | GI50 (HOP-92) | GI50 (CAKI-1) | GI50 (KM12)
1 | O=C1OC(c2ccccc2)=N/C1=C/NC(CS)C(=O)O (stereo unspecified) | > 100 µM (inactive) | > 100 µM (inactive) | > 100 µM (inactive) | > 100 µM (inactive) | > 100 µM (inactive) | > 100 µM (inactive) | > 100 µM (inactive) | > 100 µM (inactive) | > 100 µM (inactive) | > 100 µM (inactive) | > 100 µM (inactive) | > 100 µM (inactive) | > 100 µM (inactive) | > 100 µM (inactive) | > 100 µM (inactive) |  | 
2 | O=[N+]([O-])c1ccc(/C(Cl)=C/c2ccc(/C=C(\Cl)c3ccc([N+](=O)[O-])cc3[N+](=O)[O-])cc2)c([N+](=O)[O-])c1 | > 100 µM (inactive) |  | > 100 µM (inactive) | > 100 µM (inactive) | > 100 µM (inactive) | > 100 µM (inactive) | 57.4 µM (inactive) | > 100 µM (inactive) | > 100 µM (inactive) | > 100 µM (inactive) | > 100 µM (inactive) | > 100 µM (inactive) |  | > 100 µM (inactive) | > 100 µM (inactive) | > 100 µM (inactive) | 
3 | CCCCCNC(=O)CCCCCCCCCCCNC(=O)CCCCCCCCCCN1C=CC(=CC=C2C=CC(=O)C=C2)C=C1 | > 100 µM (inactive) | 21.2 µM (inactive) | 65 µM (inactive) | > 100 µM (inactive) | 71.4 µM (inactive) | > 100 µM (inactive) | 2.51 µM (inactive) | > 100 µM (inactive) | > 100 µM (inactive) | 34.4 µM (inactive) | > 100 µM (inactive) | 64.6 µM (inactive) | 34.8 µM (inactive) | 29 µM (inactive) | 14.7 µM (inactive) | > 100 µM (inactive) | 37.4 µM (inactive)
4 | C/C(=N\NC(N)=S)c1cc(C)c(C)cc1C | 8.69 µM (inactive) | 40.3 µM (inactive) | 30.9 µM (inactive) | 37.2 µM (inactive) | 47 µM (inactive) | > 100 µM (inactive) | 21.7 µM (inactive) | 45.2 µM (inactive) | 20.1 µM (inactive) | 25.9 µM (inactive) | 81.7 µM (inactive) | > 100 µM (inactive) |  | 20.2 µM (inactive) | > 100 µM (inactive) | > 100 µM (inactive) | 25.5 µM (inactive)
5 | O=C1C(c2ccccc2)=C(O)c2cccc3cccc1c23 | > 100 µM (inactive) | > 100 µM (inactive) | > 100 µM (inactive) | > 100 µM (inactive) | > 100 µM (inactive) | > 100 µM (inactive) | > 100 µM (inactive) | > 100 µM (inactive) | > 100 µM (inactive) | > 100 µM (inactive) | > 100 µM (inactive) |  | > 100 µM (inactive) | > 100 µM (inactive) | 29 µM (inactive) | > 100 µM (inactive) | > 100 µM (inactive)
6 | O=C(NC1C(=O)NNC1c1ccccc1Cl)c1ccccc1 (stereo unspecified) | > 100 µM (inactive) | 39.4 µM (inactive) | > 100 µM (inactive) | > 100 µM (inactive) | > 100 µM (inactive) | > 100 µM (inactive) | > 100 µM (inactive) | > 100 µM (inactive) | > 100 µM (inactive) | > 100 µM (inactive) | > 100 µM (inactive) | > 100 µM (inactive) | > 100 µM (inactive) | 64.4 µM (inactive) | > 100 µM (inactive) | > 100 µM (inactive) | > 100 µM (inactive)
7 | CCN(CC)CC1CCCCN1CC(=O)N1CC(C)C(=O)Nc2ccccc21 (stereo unspecified) |  | > 100 µM (inactive) | > 100 µM (inactive) | > 100 µM (inactive) | > 100 µM (inactive) | > 100 µM (inactive) | > 100 µM (inactive) | > 100 µM (inactive) | > 100 µM (inactive) | > 100 µM (inactive) | > 100 µM (inactive) | > 100 µM (inactive) | > 100 µM (inactive) | > 100 µM (inactive) | > 100 µM (inactive) | > 100 µM (inactive) | 
8 | COC(=O)c1c(C)cc2c(c1O)C1(O)C(=O)c3cc4c(c(O)c3C(=O)C1(OC)C(O)C2)C(=O)C=C(NC1OC(C)C(OC)C(O)C1OC)C4=O (stereo unspecified) | 0.241 µM (active) | 0.0204 µM (active) | 0.0687 µM (active) | 0.119 µM (active) | 0.0331 µM (active) | 0.0681 µM (active) | 0.0194 µM (active) | 0.0619 µM (active) | 0.205 µM (active) | 0.0196 µM (active) | 0.259 µM (active) | 0.277 µM (active) | 0.159 µM (active) | 0.0208 µM (active) | 0.26 µM (active) | 0.225 µM (active) | 0.129 µM (active)
9 | COc1cc(-c2ccccc2)c(OC)cc1CCl | > 100 µM (inactive) | > 100 µM (inactive) | > 100 µM (inactive) | > 100 µM (inactive) | > 100 µM (inactive) | > 100 µM (inactive) | > 100 µM (inactive) | > 100 µM (inactive) | > 100 µM (inactive) | > 100 µM (inactive) | > 100 µM (inactive) | > 100 µM (inactive) | > 100 µM (inactive) | > 100 µM (inactive) |  | > 100 µM (inactive) | > 100 µM (inactive)
10 | COc1ccc(/C=C/C(=O)c2cc(C(=O)O)c(OC)cc2OC)cc1OC | > 100 µM (inactive) | > 100 µM (inactive) | > 100 µM (inactive) | > 100 µM (inactive) | > 100 µM (inactive) | > 100 µM (inactive) | > 100 µM (inactive) | > 100 µM (inactive) | > 100 µM (inactive) | > 100 µM (inactive) | > 100 µM (inactive) | > 100 µM (inactive) | > 100 µM (inactive) | > 100 µM (inactive) | > 100 µM (inactive) |  | > 100 µM (inactive)
11 | OC(CC1SCCCS1)c1ccccc1 (stereo unspecified) | > 100 µM (inactive) | > 100 µM (inactive) | > 100 µM (inactive) | > 100 µM (inactive) | > 100 µM (inactive) | > 100 µM (inactive) | > 100 µM (inactive) | > 100 µM (inactive) | > 100 µM (inactive) | > 100 µM (inactive) | > 100 µM (inactive) | > 100 µM (inactive) | > 100 µM (inactive) | > 100 µM (inactive) |  | > 100 µM (inactive) | > 100 µM (inactive)
12 | O=c1c2ccccc2c(=O)c2c1c1[nH]c3ccccc3c1c1c(=O)c3ccccc3c(=O)c21 | > 100 µM (inactive) | > 100 µM (inactive) | > 100 µM (inactive) | > 100 µM (inactive) | > 100 µM (inactive) | > 100 µM (inactive) | > 100 µM (inactive) | > 100 µM (inactive) | > 100 µM (inactive) | > 100 µM (inactive) | > 100 µM (inactive) | > 100 µM (inactive) | > 100 µM (inactive) | > 100 µM (inactive) | > 100 µM (inactive) | > 100 µM (inactive) | > 100 µM (inactive)
13 | O=C(O)Cc1ccccc1CCc1ccccc1Cl | 96.4 µM (inactive) | > 100 µM (inactive) | > 100 µM (inactive) | > 100 µM (inactive) | > 100 µM (inactive) |  | > 100 µM (inactive) | > 100 µM (inactive) | > 100 µM (inactive) | 95.5 µM (inactive) | > 100 µM (inactive) |  | > 100 µM (inactive) | > 100 µM (inactive) | > 100 µM (inactive) | > 100 µM (inactive) | > 100 µM (inactive)
14 | c1cncc(C2c3[nH]c4ccccc4c3CCN2CCCN2CCCCC2)c1 (stereo unspecified) | > 100 µM (inactive) | > 100 µM (inactive) | > 100 µM (inactive) | 18.6 µM (inactive) | > 100 µM (inactive) | > 100 µM (inactive) | > 100 µM (inactive) | > 100 µM (inactive) | > 100 µM (inactive) | > 100 µM (inactive) | > 100 µM (inactive) | > 100 µM (inactive) | > 100 µM (inactive) | > 100 µM (inactive) | > 100 µM (inactive) | > 100 µM (inactive) | > 100 µM (inactive)
15 | O/N=C1/CCCC/C1=C/C=C/c1ccccc1 |  | 18.4 µM (inactive) | 30.3 µM (inactive) | 21.2 µM (inactive) | 21.8 µM (inactive) | 25.6 µM (inactive) | 13.1 µM (inactive) | 22.8 µM (inactive) | 26.7 µM (inactive) | 19.7 µM (inactive) | 20.9 µM (inactive) |  | 48 µM (inactive) | 19 µM (inactive) | 15.5 µM (inactive) | 35.7 µM (inactive) | 20.1 µM (inactive)
16 | C=C1C2CC(OC(C)=O)C3(C)C(c4ccoc4)OC(=O)[C@@H](O)[C@]13OC1C[C@H](OC(C)=O)C(C)(C)[C@H](CC(=O)OC)[C@]12C (stereo partly specified) | > 100 µM (inactive) | > 100 µM (inactive) | 93.5 µM (inactive) | > 100 µM (inactive) | > 100 µM (inactive) | > 100 µM (inactive) | 50.6 µM (inactive) | > 100 µM (inactive) |  | > 100 µM (inactive) | > 100 µM (inactive) |  | > 100 µM (inactive) | 70.6 µM (inactive) | 30.3 µM (inactive) |  | > 100 µM (inactive)
17 | C#C[C@]1(O)CC[C@H]2[C@@H]3CCc4cc(O)ccc4[C@H]3CC[C@@]21C [ETHINYL ESTRADIOL] | 11.7 µM (inactive) |  |  |  | 19 µM (inactive) | 78.7 µM (inactive) | 21.7 µM (inactive) | 29.1 µM (inactive) | 85.3 µM (inactive) | 17.1 µM (inactive) | 20.1 µM (inactive) |  | 68.5 µM (inactive) | 18.6 µM (inactive) | 22.9 µM (inactive) | 52.6 µM (inactive) | 13.6 µM (inactive)
